Measurements reported in patent US5025016A, “Pyrimidine-thioalkyl pyridine derivatives, medicaments containing these compounds, and method of treatment” (Ludwig Heumann & Co. GmbH, priority 1983, dated 1991).
Structures can show the parent of a compound that is named as a salt.

Tests used:
[1] = tested on: carrageenin-induced inflammation (oedema formation); test: Antiphlogistic activity: carrageenin-oedema test, right-hand rear paw; assay type: in vivo; settings: 100 mg/kg i.g., 30 minutes before injection of the carrageenin; male rats
Method: The antiphlogistic properties of the compounds according to the invention were determined by the carrageenin-oedema test in male rats (average weight 130-160 g, SIV 50, Messrs Ivanovas, Kisslegg). The inhibition of the carrageenin-induced inflammation (oedema formation) was measured on the right-hand rear paw. The test substances were administered intragastrally by esophagus probe 30 minutes before injection of the carrageenin. The results are shown in Table II (Higgs et.al., European Journal of Pharmacology 66, 81-86 (1980)).

[2] = tested on: tracheal secretion of phenol red; test: Secretion-stimulating activity: tracheal secretion of phenol red after oral administration to female mice; assay type: in vivo; settings: Mus musculus, calculated from the regression curves
Method: Bronchosecretolytic compounds promote the tracheal secretion of phenol red (Chronic Bronchitis Research Group, Chinese Medical Journal 3: 259, 1977). The increase in the tracheal secretion of phenol red is a measure of bronchosecretolytic activity. This activity of the test substances was investigated after oral administration to female mice. The ED50 -values shown in Table 1 were calculated from the regression curves.

| Compound | Inhibition in % (carrageenin-induced oedema formation) [1] [%] | ED50 [2] [mg/kg] |
| --- | --- | --- |
| Nc1cc(N)nc(SCc2cccnc2)n1 [Example 4, 4,6-diamino-2-(pyridyl-3-methylthio)-pyrimidine succinate] | 30 | > 100 |
| [O-][S+](Cc1cccnc1)c1ncccn1 (stereo not shown) [Example 9, 2-(pyridyl-3-methylsulfinyl)-pyrimidine hydrochloride] | – | 2 |
| [O-][S+](Cc1ccncc1)c1ncccn1 (stereo not shown) [Example 10, 2-(pyridyl-4-methylsulfinyl)-pyrimidine hydrochloride] | – | 100 |
| CC(Sc1ncccn1)c1cccnc1 (stereo not shown) [Example 7, 2-(pyridyl-3-(2-ethylthio)-pyrimidine oxalate] | – | 15 |
| Nc1cc(O)nc(SCc2cccnc2)n1 [Example 3, 4-amino-6-hydroxy-2-(pyridyl-3-methylthio)-pyrimidine] | – | 2 |
| CC[n+]1cccc(CSc2ncccn2)c1 [Example 13, 2-(3-methylthio-1-ethylpyridinium)-pyrimidine iodide] | – | 70 |
| Nc1ccnc(SCc2cccnc2)n1 [Example 1, 4-amino-2-(pyridyl-3-methylthio)-pyrimidine] | – | 5 |
| Cc1cc(O)nc(SCc2cccnc2)n1 [Example 5, 4-hydroxy-6-methyl-2-(pyridyl-3-methylthio)-pyrimidine] | – | 15 |
| Nc1c(Br)cc(Br)cc1CN[C@H]1CC[C@H](O)CC1 [Ambroxol, trans-4-(2-amino-3,5-dibromobenzyl)-aminocyclohexanol, reference compound] | – | 250 |
| Oc1ccnc(SCc2cccnc2)n1 [Example 2, 4-hydroxy-2-(pyridyl-3-methylthio)-pyrimidine] | 45 | 100 |
| C[n+]1cccc(CSc2ncccn2)c1 [Example 12, 2-(3-methylthio-1-methylpyridinium)-pyrimidine iodide] | – | 1 |
| Cc1ccc(C(C)Sc2ncccn2)cn1 (stereo not shown) [Example 8] | – | > 100 |
| Nc1cc(O)nc(SCc2ccc(Cl)nc2)n1 [Example 6, 4-amino-6-hydroxy-2-(pyridyl-6-chloro-3-methylthio)-pyrimidine] | – | 2 |
| Cc1ccnc([S+]([O-])Cc2cccnc2)n1 (stereo not shown) [Example 11, 4-methyl-2-(pyridyl-3-methylsulfinyl)-pyrimidine oxalate] | – | 10 |
